The text below walks through data of US7695899B2, “Methods of identifying and using chemotherapeutic agents” (The Regents of the University of Colorado, a body corporate, priority 2003, dated 2010).

This assay deals with irradiated grp mutant larvae. Briefly: Survival screen of irradiated and non-irradiated grp mutant and wild-type larvae. The assay is classed as in vivo, Drosophila melanogaster. The settings on record: colchicine 1.3 μM in cornmeal-agar food; 4,000 Rads of X-rays; cumulative results of three screens; FIG. 1. How it is done: To obtain correctly aged larvae, embryos are collected at Day 0 from wild-type and grp mutant heterozygous adults for approximately 4 hours in the late afternoon or early evening 4 days prior to experiment. The embryos are allowed to hatch into larvae and the larvae are allowed to develop. The grp mutant heterozygote adults carry a grp mutation on one chromosome and a wild-type grp gene on a balancer chromosome. The balancer chromosome also carries a Green Fluorescent Protein (GFP) transgene.
In the morning of Day 4, food is washed from larvae by using stacked sieves (VWR; USA Standard Testing Sieve: 850, 600, 425, 180 micrometer). […]
At Day 9, the total number of pupae formed are counted (this gives the percentage of larvae that survived into pupae). In the vials with progeny from grp heterozygous parents, the grp heterozygous pupae and the wild-type pupae are identified by virtue of their expression of GFP and are not counted. At Day 14, the number of empty pupae are counted (indicating the number of pupae that eclosed into adults).
Survival is expressed as the percentage of larvae that form pupae, and the percentage of pupae that eclose into adults. […]

In the case of `COc1cc2c(c(OC)c1OC)-c1ccc(OC)c(=O)cc1[C@@H](NC(C)=O)CC2` [colchicine], the “survival of irradiated grp mutant larvae (grp+R) relative to non-irradiated grp mutant larvae (grp-R), wild-type irradiated larvae (SEV+R) and wild-type non-irradiated larvae (SEV-R)” value is “selectively reduces the survival”.
